Measurements: patent publication US20210227869A1, “Formula with a specific beta-lactoglobulin peptide” (N.V. Nutricia, priority 2018, published 2021)

Legend:
[1] = system: cow's milk-specific T-cell line TCL A; assay: T-cell proliferation assay; format: cell-based, human; conditions: synthetic peptide, SI≥2 considered positive, FIG. 2
Method: (§1) Synthetic peptides were obtained from JPT technologies. Only peptides containing at least 9 AAs were taken into account, as this is the minimal size for binding to MHC class II molecules and subsequent T-cell recognition (Holland et al, Front Immunol 2013 Jul. 1; 4:172.) Synthetic peptides (JPT technologies) identical to the peptides identified in all batches of the HP of example 1 were dissolved in dimethylsulfoxide (Sigma Aldrich) at a concentration of 5.3 mM. The peptides were tested on cow's milk-specific T-cell lines (TCLs) from three different donors. The peptides were tested on cow's milk protein-specific T-cell lines (TCLs) from three infant donors, diagnosed with cow's milk protein allergy. […] Proliferation was determined as described previously (Ruiter et al, Clin Exp Allergy 2006, 36(3):303-310). Stimulation indexes (Sls, ratio between proliferation of allergen/peptide-stimulated and non-stimulated T cells) were calculated and a SI≥2 was considered positive.
(§2) To confirm that the peptides identified in HP were recognized by T cells, synthetic peptides identical to these identified peptides were tested on cow's milk-specific human TCLs. As there was a considered overlap between the identified peptides, five peptides were tested (Table 7) that were identified in all batches and differed with more than 9A from each other. All tested peptides were able to induce proliferation (FIG. 2). […] This was also seen with the in silico prediction data (data not shown). […] As peptide LIV . . . […] SLL (AA #1-32) did, the region containing AA #28-32 (DISLL) was essential for the response of TCL A. Unexpectedly, TCL C recognized peptide LIV . . . AAS (AA #1-27), while the longer peptide containing the same sequence with 5 additional AAs, LIV . . .

[2] = system: cow's milk-specific T-cell line TCL C; assay: T-cell proliferation assay; format: cell-based, human; conditions: synthetic peptide, SI≥2 considered positive, FIG. 2
Method: as §1, §2

| Sequence | T cell proliferation (stimulation index) [1] | T cell proliferation (stimulation index) [2] |
| --- | --- | --- |
| LIVTQTMKGLDIQKVAGTWYSLAMAAS (beta-lactoglobulin peptide fragment) [SEQ ID NO: 9] | not able to induce proliferation | recognized |
| LIVTQTMKGLDIQKVAGTWYSLAMAASDISLL (beta-lactoglobulin peptide fragment) [SEQ ID NO: 11] | – | not able to induce a proliferative response |
